Laboratory results reported in patent US12448369B2 (Edgewise Therapeutics, Inc., priority 2023, dated 2025).
Marks after values point to notes of the source that are not given here.

Tests used:
[1] = test system: Rabbit Psoas myofibrils (skeletal myosin ATPase); experiment: Myofibril ATPase assay, rabbit psoas (skeletal) myofibrils; type: biochemical; conditions: for Skeletal EC25: rabbit psoas myofibrils
In short: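 Readout: A340 decline from NADH oxidation, PK/LDH-coupled to ADP release; kinetic reads over 75 min. Buffer: pCa (PIPES, CaCl2, EGTA), pH 7.0. Linear-regression slopes vs vehicle, 4PL fit; reported as concentration giving 75% (Y75) or 125% (Y125) of vehicle activity.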

[2] = test system: Porcine atria myofibrils (atrial myosin ATPase); experiment: Myofibril ATPase assay, porcine atria myofibrils; type: biochemical
In short: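 Coupled PK-LDH readout, NADH loss at 340 nm, kinetic 75 min. Porcine atria myofibrils, pCa buffer (PIPES/CaCl2/EGTA, pH 7.0). Slopes (mAU/min) normalized to vehicle = 100%, 4-parameter fit; Y75 or Y125 reported.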

[3] = molecular target: T1, Porcine ventricle myofibrils (ventricular myosin ATPase) (Sus scrofa, UniProt P79293); experiment: Myofibril ATPase assay, porcine ventricle myofibrils; type: biochemical, porcine (Yucatan minipigs)
T1 construct: Myofibrils from porcine cardiac muscle was isolated from the left ventricle of Yucatan minipigs; tissue Exemplar Genetics; host or cells: left ventricle of Yucatan minipigs, myofibrils prepared in house
T1 sequence (P79293 whole entry): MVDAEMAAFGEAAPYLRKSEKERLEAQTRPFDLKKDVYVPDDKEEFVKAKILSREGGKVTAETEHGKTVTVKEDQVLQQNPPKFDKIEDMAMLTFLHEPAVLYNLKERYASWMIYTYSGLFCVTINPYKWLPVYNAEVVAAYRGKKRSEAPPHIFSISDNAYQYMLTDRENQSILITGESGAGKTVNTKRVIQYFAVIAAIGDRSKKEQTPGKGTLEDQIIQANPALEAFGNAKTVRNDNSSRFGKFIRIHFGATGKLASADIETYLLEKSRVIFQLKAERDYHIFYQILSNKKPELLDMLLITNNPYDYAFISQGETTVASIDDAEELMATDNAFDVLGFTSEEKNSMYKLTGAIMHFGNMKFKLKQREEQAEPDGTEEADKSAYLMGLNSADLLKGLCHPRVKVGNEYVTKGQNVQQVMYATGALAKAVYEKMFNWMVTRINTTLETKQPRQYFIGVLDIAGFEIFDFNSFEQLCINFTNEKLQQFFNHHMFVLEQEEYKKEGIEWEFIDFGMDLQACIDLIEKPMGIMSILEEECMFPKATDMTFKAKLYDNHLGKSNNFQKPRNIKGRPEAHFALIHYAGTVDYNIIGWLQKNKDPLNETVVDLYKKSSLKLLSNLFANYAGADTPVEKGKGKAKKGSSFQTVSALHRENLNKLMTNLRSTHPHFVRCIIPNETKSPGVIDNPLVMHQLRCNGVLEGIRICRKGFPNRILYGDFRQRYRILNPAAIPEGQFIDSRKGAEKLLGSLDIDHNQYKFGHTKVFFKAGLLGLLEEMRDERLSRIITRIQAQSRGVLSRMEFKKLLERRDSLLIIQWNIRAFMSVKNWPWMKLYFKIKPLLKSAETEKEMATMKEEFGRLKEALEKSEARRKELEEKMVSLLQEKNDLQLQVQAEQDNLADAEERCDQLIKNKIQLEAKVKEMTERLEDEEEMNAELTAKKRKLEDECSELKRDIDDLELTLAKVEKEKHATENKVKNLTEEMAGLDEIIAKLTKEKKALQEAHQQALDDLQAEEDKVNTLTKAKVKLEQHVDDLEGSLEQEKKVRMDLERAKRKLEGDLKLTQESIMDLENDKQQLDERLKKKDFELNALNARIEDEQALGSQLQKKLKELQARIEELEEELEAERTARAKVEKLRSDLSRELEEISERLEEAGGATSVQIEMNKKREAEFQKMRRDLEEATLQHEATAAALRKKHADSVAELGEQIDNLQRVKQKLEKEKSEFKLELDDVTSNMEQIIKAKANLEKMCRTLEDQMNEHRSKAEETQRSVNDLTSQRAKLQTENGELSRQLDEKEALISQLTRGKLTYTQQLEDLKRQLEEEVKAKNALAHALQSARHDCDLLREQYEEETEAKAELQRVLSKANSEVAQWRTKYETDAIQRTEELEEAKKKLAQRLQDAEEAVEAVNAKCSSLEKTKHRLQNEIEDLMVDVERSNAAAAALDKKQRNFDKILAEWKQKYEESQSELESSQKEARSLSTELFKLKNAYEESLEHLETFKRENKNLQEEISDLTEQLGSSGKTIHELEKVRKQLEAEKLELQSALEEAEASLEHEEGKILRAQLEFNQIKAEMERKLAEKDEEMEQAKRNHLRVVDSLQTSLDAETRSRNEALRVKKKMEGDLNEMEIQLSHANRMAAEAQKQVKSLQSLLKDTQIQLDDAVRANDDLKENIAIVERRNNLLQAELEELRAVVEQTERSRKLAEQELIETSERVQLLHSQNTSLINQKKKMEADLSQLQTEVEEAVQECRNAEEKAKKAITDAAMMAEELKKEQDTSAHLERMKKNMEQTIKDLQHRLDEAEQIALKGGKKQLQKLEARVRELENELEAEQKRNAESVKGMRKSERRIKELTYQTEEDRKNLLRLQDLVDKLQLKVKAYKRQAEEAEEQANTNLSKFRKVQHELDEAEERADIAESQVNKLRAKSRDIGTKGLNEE
In short: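 In a coupled enzyme format, ADP from myofibril ATPase drives NADH oxidation, monitored kinetically at 340 nm for 75 min using minipig ventricle myofibrils. Effective concentrations giving 25% loss or gain of activity relative to vehicle were calculated from 4-parameter fits.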

[4] = Y75 value (no ‡ mark), porcine atria myofibrils
[5] = Y75 value (no ‡ mark), porcine ventricle myofibrils
[6] = porcine atria myofibrils, Y75 value (75% activity relative to no compound)
[7] = porcine ventricle myofibrils, Y75 value

Compound	Skeletal EC25 ([1]; Y75 value (no ‡ mark))	Atrial EC25 [2, 4]	Ventricular EC25 [3, 5]	Skeletal EC25 ([1]; Y75 value)	Atrial EC25 [2, 6]	Ventricular EC25 [3, 7]	also measured
C[C@H](NC(=O)Cc1c(C2CC2)c2cc(F)ccc2[nH]c1=O)c1ncc(C#N)cc1F [compound 40]	0.02 µM	0.47 µM	0.41 µM	–	–	–	–
Cc1cc(C#N)nnc1[C@H](C)NC(=O)Cc1c(C)c2c(C)nccc2[nH]c1=O [compound 490]	–	–	–	45.80 µM	100.00 µM	100.00 µM	–
COc1ccc2[nH]c(=O)c(CC(=O)N[C@@H](C)c3ccc(F)cc3F)cc2c1C#N [Compound 81, (S)-2-(5-Cyano-6-methoxy-2-oxo-1,2-dihydroquinolin-3-yl)-N-(1-(2,4-difluorophenyl)ethyl) acetamide]	51.89 µM	100.00 µM	100.00 µM	–	–	–	–
Cc1c(C(F)(F)C(=O)N[C@H](C)c2cnc(C#N)cn2)c(=O)[nH]c2ccc(F)cc12 (single isomer, unassigned) [compound 4827]	0.08 µM	0.23 µM	0.71 µM	–	–	–	–
C[C@H](NC(=O)[C@@H](C)c1cc2c(Cl)c(O)ccc2[nH]c1=O)c1ccc(F)cc1F (single isomer, unassigned) [compound 88]	74.46 µM	83.97 µM	88.39 µM	–	–	–	–
C[C@H](NC(=O)[C@@H](C)c1cc2c(F)cccc2[nH]c1=O)c1ccc(F)cc1F (single isomer, unassigned) [compound 102]	3.90 µM	100.00 µM	100.00 µM	–	–	–	–
Cc1nc([C@H](C)NC(=O)Cc2c(C)c3c(C)nccc3[nH]c2=O)ncc1C#N [compound 479]	–	–	–	100.00 µM	100.00 µM	100.00 µM	–
Cc1cc(F)cc(F)c1[C@@H](C)NC(=O)Cc1c(C)c2c(C)nccc2[nH]c1=O (single isomer, unassigned) [compound 404]	–	–	–	0.35 µM	100.00 µM	42.84 µM	–
Cc1nccc2[nH]c(=O)c(CC(=O)N[C@@H](CO)c3ccc(C#N)cc3F)c(C)c12 (single isomer, unassigned) [compound 243]	–	–	–	0.17 µM	0.56 µM	2.20 µM	–
Cc1nccc2[nH]c(=O)c(CC(=O)N[C@@H](C)c3ncccc3F)c(C)c12 (single isomer, unassigned) [compound 268]	–	–	–	100.00 µM	100.00 µM	100.00 µM	–
C[C@@H](NC(=O)C1(c2cc3cc(F)ccc3[nH]c2=O)CC1)c1cccc(C#N)n1 (single isomer, unassigned) [compound 2534]	–	15.93 µM	100.00 µM	–	–	–	Skeletal EC25 ([1]; ‡ Y125 value, not a Y75 value (125% activity relative to no compound)): 37.90‡ μM
Cc1c(C(C)C(=O)N[C@@H](C)c2ccc(F)cc2F)c(=O)[nH]c2ccnc(I)c12 (stereo partly drawn) [compound 349]	–	–	–	0.13 µM	0.76 µM	5.41 µM	–
COc1ccc([C@H](C)NC(=O)Cc2c(C)c3c(C)nccc3[nH]c2=O)cc1 (single isomer, unassigned) [compound 287]	–	–	–	100.00 µM	100.00 µM	100.00 µM	–
C[C@H](NC(=O)Cc1cc2c(F)c(F)ccc2[nH]c1=O)c1nc(C#N)co1 (single isomer, unassigned) [compound 4007]	–	–	–	–	–	–	Skeletal EC25 (μM), Y125 value (‡) ([1]; Y125 value: concentration required to increase myosin ATP-ase activity by 25%, Rabbit Psoas Prep pCa 25 GEOM_MEAN): 100.00‡ μM; Atrial EC25 ([2]; Y75 value: concentration required to reduce myosin ATP-ase activity by 25%, Porcine Atria Prep pCa 25 GEOM_MEAN): 100.00 µM; Ventricular EC25 ([3]; Y75 value: concentration required to reduce myosin ATP-ase activity by 25%, Porcine Ventricle Prep pCa 25 GEOM_MEAN): 100.00 µM
Cc1c(CC(=O)N[C@H](C)c2ccc(C#N)cn2)c(=O)[nH]c2ccc(C(F)(F)F)nc12 [compound 459]	–	–	–	100.00 µM	3.13 µM	100.00 µM	–
C[C@H](NC(=O)Cc1cc2cc(O)ccc2[nH]c1=O)c1ccc(F)cc1F [compound 125]	25.67 µM	64.80 µM	20.89 µM	–	–	–	–
